Measurements taken from PubChem BioAssay (NCI).
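These data come from cells grown in 96-well plates and exposed to compound for 48 hours at five concentrations. Abbreviation: GI50, concentration required for 50% inhibition of growth. TGI denotes the concentration required for complete inhibition of growth.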

How the values were obtained:
Test in all cases: NCI-60 cell line screen, 48 h
[1] = test system: NCI-H460 lung
[2] = test system: TK-10 renal
[3] = test system: OVCAR-8 ovarian
[4] = test system: SNB-75 CNS
[5] = test system: SW-620 colon
[6] = test system: OVCAR-3 ovarian
[7] = test system: A498 renal
[8] = test system: MDA-MB-231 breast
[9] = test system: SF-539 CNS
[10] = test system: MCF7 breast
[11] = test system: KM12 colon
[12] = test system: SF-268 CNS
[13] = test system: T-47D breast
[14] = test system: UACC-62 melanoma
[15] = test system: PC-3 prostate
[16] = test system: ACHN renal
[17] = test system: DU-145 prostate
[18] = test system: A549 NSCLC
[19] = test system: M14 melanoma
[20] = test system: MDA-MB-435
[21] = test system: HL-60(TB) leukemia
[22] = test system: CCRF-CEM leukemia
[23] = test system: HCC-2998 colon
[24] = test system: RPMI-8226 leukemia
[25] = test system: OVCAR-5 ovarian
[26] = test system: CAKI-1 renal
[27] = test system: 786-0 renal
[28] = test system: RXF 393 renal
[29] = test system: NCI-H226 lung
[30] = test system: HS 578T breast
[31] = test system: HOP-92 NSCLC
[32] = test system: NCI-H23 lung
[33] = test system: U251 CNS
[34] = test system: NCI/ADR-RES ovarian
[35] = test system: BT-549 breast
[36] = test system: LOX IMVI melanoma
[37] = test system: COLO 205 colon
[38] = test system: SK-MEL-28 melanoma
[39] = test system: HCT-116 colon
[40] = test system: NCI-H522 lung
[41] = test system: SN12C renal
[42] = test system: SNB-19 CNS
[43] = test system: SK-MEL-2 melanoma
[44] = test system: K-562 leukemia
[45] = test system: SF-295 CNS
[46] = test system: SK-MEL-5 melanoma
[47] = test system: EKVX NSCLC
[48] = test system: HCT-15 colon
[49] = test system: MOLT-4 leukemia
[50] = test system: HOP-62 NSCLC
[51] = test system: UACC-257 melanoma
[52] = test system: HT29 colon
[53] = test system: IGROV1 ovarian
[54] = test system: UO-31 renal
[55] = test system: SK-OV-3 ovarian
[56] = test system: OVCAR-4 ovarian

Structure (SMILES): CCN1C2=C(SC(=S)C1=C1SC(C(=O)OC)=C(C(=O)OC)S1)SC(=Nc1ccc(OC)cc1)C2=O
- GI50 [1]: 2.02 µM
- TGI [1]: 4.65 µM
- GI50 [2]: 5.08 µM
- TGI [2]: > 100 µM
- GI50 [3]: 2.82 µM
- TGI [3]: > 100 µM
- GI50 [4]: 1.1 µM
- TGI [4]: 2.53 µM
- GI50 [5]: 1.77 µM
- TGI [5]: 3.7 µM
- GI50 [6]: 1.79 µM
- TGI [6]: 3.39 µM
- GI50 [7]: 2.03 µM
- TGI [7]: 5.37 µM
- GI50 [8]: 3.39 µM
- TGI [8]: > 100 µM
- GI50 [9]: 1.86 µM
- TGI [9]: 3.77 µM
- GI50 [10]: 1.9 µM
- TGI [10]: 5.75 µM
- GI50 [11]: 1.67 µM
- TGI [11]: 3.13 µM
- GI50 [12]: 2.56 µM
- TGI [12]: 7.64 µM
- GI50 [13]: 2.16 µM
- TGI [13]: 5.88 µM
- GI50 [14]: 1.73 µM
- TGI [14]: 3.84 µM
- GI50 [15]: 3.01 µM
- TGI [15]: > 100 µM
- GI50 [16]: 1.82 µM
- TGI [16]: 3.58 µM
- GI50 [17]: 1.73 µM
- TGI [17]: 3.43 µM
- GI50 [18]: 13.1 µM
- TGI [18]: 62.5 µM
- GI50 [19]: 1.75 µM
- TGI [19]: 3.75 µM
- GI50 [20]: 2.21 µM
- TGI [20]: 5.55 µM
- GI50 [21]: 1.79 µM
- TGI [21]: 6.83 µM
- GI50 [22]: 2.09 µM
- TGI [22]: > 100 µM
- GI50 [23]: 1.95 µM
- TGI [23]: 3.66 µM
- GI50 [24]: 2.38 µM
- TGI [24]: 9.19 µM
- GI50 [25]: 2.37 µM
- TGI [25]: 6.19 µM
- GI50 [26]: 1.81 µM
- TGI [26]: 3.9 µM
- GI50 [27]: 1.8 µM
- TGI [27]: 3.34 µM
- GI50 [28]: 1.88 µM
- TGI [28]: 3.98 µM
- GI50 [29]: 2.25 µM
- TGI [29]: 5.26 µM
- GI50 [30]: 3.93 µM
- TGI [30]: > 100 µM
- GI50 [31]: 2.97 µM
- TGI [31]: 26.1 µM
- GI50 [32]: 2.27 µM
- TGI [32]: 4.17 µM
- GI50 [33]: 1.65 µM
- TGI [33]: 3.27 µM
- GI50 [34]: 3.05 µM
- TGI [34]: 7.19 µM
- GI50 [35]: 1.71 µM
- TGI [35]: 4.06 µM
- GI50 [36]: 1.69 µM
- TGI [36]: 3.43 µM
- GI50 [37]: 1.92 µM
- TGI [37]: 5.74 µM
- GI50 [38]: 1.69 µM
- TGI [38]: 3.25 µM
- GI50 [39]: 1.59 µM
- TGI [39]: 3.11 µM
- GI50 [40]: 1.59 µM
- TGI [40]: 3.96 µM
- GI50 [41]: 2.76 µM
- TGI [41]: > 100 µM
- GI50 [42]: 2.89 µM
- TGI [42]: 10.8 µM
- GI50 [43]: 2.09 µM
- TGI [43]: 5.29 µM
- GI50 [44]: 2.36 µM
- TGI [44]: > 100 µM
- GI50 [45]: 1.31 µM
- TGI [45]: 3.55 µM
- GI50 [46]: 1.63 µM
- TGI [46]: 3.08 µM
- GI50 [47]: 3.62 µM
- TGI [47]: 21.3 µM
- GI50 [48]: 3.02 µM
- TGI [48]: 33.3 µM
- GI50 [49]: 1.54 µM
- TGI [49]: 5.29 µM
- GI50 [50]: 1.95 µM
- TGI [50]: 3.8 µM
- GI50 [51]: 1.76 µM
- TGI [51]: 3.87 µM

Structure (SMILES): CC(=O)O[C@H]1[C@@H]2OC(=O)C3(CC3)C2C[C@H]2O[C@]2(C)CC/C=C(\C)CCC[C@@H]1C (stereo partly specified)
- GI50 [1]: 24.6 µM
- TGI [1]: 58.2 µM
- GI50 [2]: 23.9 µM
- TGI [2]: 46.9 µM
- GI50 [3]: 27.8 µM
- TGI [3]: > 100 µM
- GI50 [4]: 38.1 µM
- TGI [4]: > 100 µM
- GI50 [52]: 36.8 µM
- TGI [52]: > 100 µM
- GI50 [5]: 23.7 µM
- TGI [5]: 55.9 µM
- GI50 [6]: 17.5 µM
- TGI [6]: 32.9 µM
- GI50 [7]: 27.4 µM
- TGI [7]: > 100 µM
- GI50 [8]: 20.5 µM
- TGI [8]: 48.7 µM
- GI50 [9]: 23.3 µM
- TGI [9]: 50.8 µM
- GI50 [10]: 37.1 µM
- TGI [10]: > 100 µM
- GI50 [11]: 18.4 µM
- TGI [11]: 36.5 µM
- GI50 [12]: 27.7 µM
- TGI [12]: > 100 µM
- GI50 [13]: 43.7 µM
- TGI [13]: > 100 µM
- GI50 [14]: 17.1 µM
- TGI [14]: 46.1 µM
- GI50 [15]: 19 µM
- TGI [15]: 49.6 µM
- GI50 [16]: 21 µM
- TGI [16]: 44.2 µM
- GI50 [17]: 19.6 µM
- TGI [17]: 39.1 µM
- GI50 [18]: 20.3 µM
- TGI [18]: 46 µM
- GI50 [19]: 19.1 µM
- TGI [19]: 43.6 µM
- GI50 [20]: 24.2 µM
- TGI [20]: 54.3 µM
- GI50 [22]: 17.2 µM
- TGI [22]: 37.8 µM
- GI50 [23]: 19.8 µM
- TGI [23]: 50.9 µM
- GI50 [24]: 23.8 µM
- TGI [24]: 55.2 µM
- GI50 [25]: 76.5 µM
- TGI [25]: > 100 µM
- GI50 [53]: 16.4 µM
- TGI [53]: 45.2 µM
- GI50 [26]: 19.8 µM
- TGI [26]: 42.1 µM
- GI50 [27]: 25.8 µM
- TGI [27]: 92 µM
- GI50 [28]: 14.8 µM
- TGI [28]: 37.7 µM
- GI50 [54]: 25.5 µM
- TGI [54]: 64.2 µM
- GI50 [29]: 24.1 µM
- TGI [29]: 66.5 µM
- GI50 [30]: 19 µM
- TGI [30]: 50.2 µM
- GI50 [31]: 4.58 µM
- TGI [31]: 63 µM
- GI50 [32]: 22.1 µM
- TGI [32]: > 100 µM
- GI50 [33]: 22.6 µM
- TGI [33]: 49.9 µM
- GI50 [34]: 23.3 µM
- TGI [34]: 67.5 µM
- GI50 [35]: 18.7 µM
- TGI [35]: 46.2 µM
- GI50 [36]: 15.8 µM
- TGI [36]: 46.2 µM
- GI50 [37]: 34 µM
- TGI [37]: > 100 µM
- GI50 [38]: 36.7 µM
- TGI [38]: > 100 µM
- GI50 [39]: 15.7 µM
- TGI [39]: 37.3 µM
- GI50 [40]: 21.1 µM
- TGI [40]: 48.4 µM
- GI50 [41]: 22.7 µM
- TGI [41]: 49.7 µM
- GI50 [42]: 62.4 µM
- TGI [42]: > 100 µM
- GI50 [55]: 80.5 µM
- TGI [55]: > 100 µM
- GI50 [43]: 19.5 µM
- TGI [43]: 49.5 µM
- GI50 [44]: 14.3 µM
- TGI [44]: 37.7 µM
- GI50 [45]: 40.2 µM
- TGI [45]: > 100 µM
- GI50 [46]: 14.8 µM
- TGI [46]: 29 µM
- GI50 [47]: 30.1 µM
- TGI [47]: > 100 µM
- GI50 [48]: 26.8 µM
- TGI [48]: 70 µM
- GI50 [49]: 18.1 µM
- TGI [49]: 41.3 µM
- GI50 [56]: 38 µM
- TGI [56]: > 100 µM
- GI50 [50]: 37.7 µM
- TGI [50]: > 100 µM
- GI50 [51]: 43.4 µM
- TGI [51]: > 100 µM

Structure (SMILES): NC1CC(=O)c2ccccc21 (stereo unspecified)
- TGI [2]: > 100 µM
- TGI [3]: > 100 µM
- TGI [4]: > 100 µM
- TGI [52]: > 100 µM
- TGI [5]: > 100 µM
- TGI [6]: > 100 µM
- TGI [7]: > 100 µM
- TGI [8]: > 100 µM
- TGI [9]: > 100 µM
- TGI [10]: > 100 µM
- TGI [11]: > 100 µM
- TGI [12]: > 100 µM
- TGI [13]: > 100 µM
- TGI [14]: > 100 µM
- TGI [15]: > 100 µM
- TGI [16]: > 100 µM
- TGI [17]: > 100 µM
- TGI [18]: > 100 µM
- TGI [19]: > 100 µM
- TGI [20]: > 100 µM
- TGI [22]: > 100 µM
- TGI [23]: > 100 µM
- TGI [24]: > 100 µM
- TGI [25]: > 100 µM
- TGI [53]: > 100 µM
- TGI [26]: > 100 µM
- TGI [27]: > 100 µM
- TGI [28]: > 100 µM
- TGI [54]: > 100 µM
- TGI [29]: > 100 µM
- TGI [30]: > 100 µM
- TGI [31]: > 100 µM
- TGI [32]: > 100 µM
- TGI [33]: > 100 µM
- TGI [34]: > 100 µM
- TGI [35]: > 100 µM
- TGI [36]: > 100 µM
- TGI [37]: > 100 µM
- TGI [38]: > 100 µM
- TGI [39]: > 100 µM
- TGI [40]: > 100 µM
- TGI [41]: > 100 µM
- TGI [42]: > 100 µM
- TGI [55]: > 100 µM
- TGI [43]: > 100 µM
- TGI [44]: > 100 µM
- TGI [45]: > 100 µM
- TGI [46]: > 100 µM
- TGI [47]: > 100 µM
- TGI [48]: > 100 µM
- TGI [49]: > 100 µM
- TGI [56]: > 100 µM
- TGI [50]: > 100 µM
- TGI [51]: > 100 µM
